Assay results reported in paper PMC4669722, “Antitumour potential of BPT: a dual inhibitor of cdk4 and tubulin polymerization” (Cell Death & Disease, 2015).
Like-named read-outs stand apart in the source and are kept apart here.

Assays:
Cdk4-cyclin D1 [1] = biological target: T1, Cdk4-cyclin D1 (Homo sapiens, UniProt P11802); experiment: In vitro kinase assay, Cdk4-cyclin D1 (in-house); assay type: biochemical; conditions: three independent experiments; read-out: IC50 (mean±S.D.), Cdk4-cyclin D1
T1 sequence (P11802 whole entry): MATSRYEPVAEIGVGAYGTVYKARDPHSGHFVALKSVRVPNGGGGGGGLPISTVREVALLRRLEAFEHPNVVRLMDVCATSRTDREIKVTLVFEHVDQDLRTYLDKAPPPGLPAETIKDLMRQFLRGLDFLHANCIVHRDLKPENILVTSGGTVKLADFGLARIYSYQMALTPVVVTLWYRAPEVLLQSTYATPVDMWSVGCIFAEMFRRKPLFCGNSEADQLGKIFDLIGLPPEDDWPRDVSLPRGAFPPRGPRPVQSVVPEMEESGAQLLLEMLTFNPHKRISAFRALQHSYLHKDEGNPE
T1 sequence (P24385 whole entry partner): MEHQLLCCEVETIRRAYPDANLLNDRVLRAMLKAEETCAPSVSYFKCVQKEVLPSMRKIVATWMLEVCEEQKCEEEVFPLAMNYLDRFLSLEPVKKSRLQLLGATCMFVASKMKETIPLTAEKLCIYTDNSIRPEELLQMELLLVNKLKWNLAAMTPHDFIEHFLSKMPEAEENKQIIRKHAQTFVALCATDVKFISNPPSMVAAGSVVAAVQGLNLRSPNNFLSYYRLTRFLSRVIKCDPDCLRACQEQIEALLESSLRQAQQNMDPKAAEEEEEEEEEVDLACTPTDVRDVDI
Protocol: (§1) The in vitro kinase assays for testing against Cdk4-cyclin D1, Cdk2-cyclin A, Cdk1-cyclin B1 and Cdk9-cyclin T1 were performed in-house. The methodology and results have been reported previously.[20], [30], [31], [32], [45] The kinase profiling for 58 representative kinases was carrried out commercially at Millipore Bioscience Division, Livingston, UK.

[2] = tested on: Calu-1 (NSCLC; p53 null, pRb+); experiment: Cell proliferation (MTT) assay, Calu-1; assay type: cell-based, human; conditions: Homo sapiens, Calu-1; 48 h, MTT; read-out: IC50 cell growth inhibition, Calu-1
Protocol: (§2) All 10 human cancer cell lines were maintained at 37 °C in 5% CO2 in RPMI-1640 medium, supplemented with 10% foetal calf serum and 100 μg/ml normocin. The 10 cancer cell lines used for screening were all obtained from ATCC (Manassas, VA, USA); they were the NSCLC (a form of cancer that is resistant to chemotherapy) lines: NCI-H460 (pRb^+, p53^+), A549 (pRb^+, p53^+), Calu-1 (pRb^+, p53-null), NCI-H1299 (pRb^+, p53-null), NCI-H358 (pRb-null, p53-null); the colon cancer line LS174T (pRb^+, p53^+); the prostate cancer line PC-3 (pRb^+, p53-null); the pancreatic cancer line MiaPaca (pRb^+, p53-mutant). The genotypes within brackets indicate the status of the tumour suppressor proteins pRb and p53. The mouse embryonic normal hepatic cell line (BNL CL2) and its SV40 large T-antigen-transformed counterpart cell line (BNL SV A.8) were also purchased from ATCC. The large T-antigen inactivates the tumour suppressor proteins p53 and pRb. The detailed procedure of cell proliferation (MTT) assay and IC50 determination was described previously.[32]

[3] = tested on: NCI-H358 (NSCLC; p53 null, pRb null); experiment: Cell proliferation (MTT) assay, NCI-H358; assay type: cell-based; conditions: Homo sapiens, 48 h, read-out: IC50 cell growth inhibition, NCI-H358
Protocol: as §2

[4] = tested on: NCI-H1299 (NSCLC; p53 null, pRb+); experiment: Cell proliferation (MTT) assay, NCI-H1299; assay type: cell-based; conditions: Homo sapiens, 48 h, read-out: IC50 cell growth inhibition, NCI-H1299
Protocol: as §2

Cdk2-cyclin A = Cdk2-cyclin A (Homo sapiens, UniProt P24941); experiment: In vitro kinase assay, Cdk2-cyclin A (in-house); assay type: biochemical
Protocol: as §1

[5] = tested on: NCI-H460 (NSCLC; p53+, pRb+); experiment: Cell proliferation (MTT) assay, NCI-H460; assay type: cell-based; conditions: Homo sapiens, 48 h, read-out: IC50 cell growth inhibition, NCI-H460
Protocol: as §2

[6] = tested on: MiaPaCa (pancreatic; p53His273mut, pRb+); experiment: Cell proliferation (MTT) assay, MiaPaCa; assay type: cell-based; conditions: Homo sapiens, MIA PaCa-2, 48 h, read-out: IC50 cell growth inhibition, MiaPaCa
Protocol: as §2

A549 (NSCLC; p53+, pRb+) = experiment: Cell proliferation (MTT) assay, A549; assay type: cell-based; conditions: Homo sapiens, 48 h, read-out: IC50 cell growth inhibition, A549
Protocol: as §2

[7] = tested on: PC-3 (prostate; p53 null, pRb+); experiment: Cell proliferation (MTT) assay, PC-3; assay type: cell-based; conditions: Homo sapiens, 48 h, read-out: IC50 cell growth inhibition, PC-3
Protocol: as §2

[8] = tested on: LS174T (colorectal carcinoma; p53+, pRb+); experiment: Cell proliferation (MTT) assay, LS174T; assay type: cell-based; conditions: Homo sapiens, 48 h, read-out: IC50 cell growth inhibition, LS174T
Protocol: as §2

[9] = tested on: BNL CL2 (mouse normal hepatic cells); experiment: Cell proliferation (MTT) assay, BNL CL2; assay type: cell-based; conditions: Mus musculus, BNL CL.2; 48 h, MTT; read-out: IC50 cell growth inhibition, BNL CL2
Protocol: as §2

Cdk9-cyclin T1 = Cdk9-cyclin T1 (Homo sapiens, UniProt P50750); experiment: In vitro kinase assay, Cdk9-cyclin T1 (in-house); assay type: biochemical; conditions: three independent experiments; read-out: IC50 (mean±S.D.), Cdk9-cyclin T1
Chain of Cdk9-cyclin T1 (P50750 whole entry): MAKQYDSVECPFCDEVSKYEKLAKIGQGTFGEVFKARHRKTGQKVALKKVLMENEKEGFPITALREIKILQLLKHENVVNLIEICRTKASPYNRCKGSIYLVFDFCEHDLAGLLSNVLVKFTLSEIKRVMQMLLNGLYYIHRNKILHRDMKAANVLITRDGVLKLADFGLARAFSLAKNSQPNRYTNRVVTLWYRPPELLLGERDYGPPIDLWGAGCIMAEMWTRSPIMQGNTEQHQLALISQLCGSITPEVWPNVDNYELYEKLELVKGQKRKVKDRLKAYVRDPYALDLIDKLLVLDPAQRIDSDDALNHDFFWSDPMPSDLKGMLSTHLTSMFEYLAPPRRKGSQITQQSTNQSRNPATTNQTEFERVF
Chain of Cdk9-cyclin T1 (O60563 whole entry partner): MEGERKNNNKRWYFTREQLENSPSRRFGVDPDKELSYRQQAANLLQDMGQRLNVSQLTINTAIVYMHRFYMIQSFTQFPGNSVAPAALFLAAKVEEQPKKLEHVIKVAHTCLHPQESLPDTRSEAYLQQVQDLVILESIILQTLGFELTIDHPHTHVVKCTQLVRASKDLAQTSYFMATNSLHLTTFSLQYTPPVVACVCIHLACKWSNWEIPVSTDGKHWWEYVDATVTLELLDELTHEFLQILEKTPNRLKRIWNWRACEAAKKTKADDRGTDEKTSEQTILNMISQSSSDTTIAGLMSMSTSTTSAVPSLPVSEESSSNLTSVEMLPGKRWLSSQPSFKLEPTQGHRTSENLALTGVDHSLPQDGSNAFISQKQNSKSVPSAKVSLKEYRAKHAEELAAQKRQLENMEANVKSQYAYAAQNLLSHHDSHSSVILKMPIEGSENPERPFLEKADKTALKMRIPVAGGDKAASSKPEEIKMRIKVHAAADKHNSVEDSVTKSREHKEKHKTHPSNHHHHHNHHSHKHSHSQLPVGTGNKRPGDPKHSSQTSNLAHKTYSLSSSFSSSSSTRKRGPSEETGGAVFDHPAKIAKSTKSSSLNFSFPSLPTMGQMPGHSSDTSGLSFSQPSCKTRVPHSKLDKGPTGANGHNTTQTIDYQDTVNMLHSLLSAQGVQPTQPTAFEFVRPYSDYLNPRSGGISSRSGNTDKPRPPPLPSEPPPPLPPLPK
Protocol: as §1

pBluescript plasmid DNA [10] = experiment: EtBr displacement assay; assay type: binding; conditions: 1.3 μM EtBr
Protocol: The assays were performed in a 96-well plate with clear bottom (Costar, Washington, DC, USA). The assay involved the addition of 10 μl of 10 × concentrated stock solution of compounds (dissolved in DMSO and further diluted in EtBr displacement assay buffer) to 90 μl of reaction mixture containing 6 μg of purified pBlueScript DNA and 1.3 μM EtBr in EtBr displacement assay buffer with final pH 7.4. Equivalent amounts of DMSO were added to the vehicle controls. In addition to control samples (DNA+EtBr), test samples (DNA+EtBr+test compounds), blank 1 (EtBr only), blank 2 (DNA only), wells containing DNA and compound were also prepared to test any change in the background fluorescence readings. The reduction in relative fluorescence counts was monitored ([…]) and recorded after 1 min equilibration time. Fascaplysin and actinomycin D, which are known to intercalate d-s DNA, were used as standard compounds in assay. The mean control and test readings were corrected by subtracting blank readings. The percentage fluorescence in the test samples in reaction with control samples was calculated by using following formula: […]

Cdk1-cyclin B1 = Cdk1-cyclin B1 (Homo sapiens, UniProt P06493); experiment: In vitro kinase assay, Cdk1-cyclin B1 (in-house); assay type: biochemical; conditions: three independent experiments; read-out: IC50 (mean±S.D.), Cdk1-cyclin B1
Chain of Cdk1-cyclin B1 (P06493 whole entry): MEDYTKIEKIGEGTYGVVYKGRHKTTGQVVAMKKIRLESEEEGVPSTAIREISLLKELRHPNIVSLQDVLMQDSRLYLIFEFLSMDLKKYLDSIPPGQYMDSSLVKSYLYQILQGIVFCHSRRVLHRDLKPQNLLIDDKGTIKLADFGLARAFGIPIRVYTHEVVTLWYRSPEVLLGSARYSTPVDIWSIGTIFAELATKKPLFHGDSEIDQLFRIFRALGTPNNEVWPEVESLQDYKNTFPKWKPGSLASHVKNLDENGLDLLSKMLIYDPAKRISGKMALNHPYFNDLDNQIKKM
Chain of Cdk1-cyclin B1 (P14635 whole entry partner): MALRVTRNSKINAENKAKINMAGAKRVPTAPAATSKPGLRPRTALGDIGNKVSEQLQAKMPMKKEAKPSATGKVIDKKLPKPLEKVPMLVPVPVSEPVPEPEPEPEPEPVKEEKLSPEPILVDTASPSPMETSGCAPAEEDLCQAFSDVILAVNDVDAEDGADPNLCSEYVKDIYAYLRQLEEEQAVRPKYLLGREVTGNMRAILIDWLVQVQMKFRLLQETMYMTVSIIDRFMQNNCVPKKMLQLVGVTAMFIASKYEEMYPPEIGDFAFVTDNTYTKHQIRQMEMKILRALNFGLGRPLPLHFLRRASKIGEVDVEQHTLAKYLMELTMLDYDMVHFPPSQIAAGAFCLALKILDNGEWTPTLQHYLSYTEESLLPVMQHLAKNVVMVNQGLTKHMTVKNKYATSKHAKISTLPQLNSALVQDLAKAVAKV
Protocol: as §1

[11] = tested on: BNL SV A.8 (mouse hepatic; SV40-mediated transformed cells); experiment: Cell proliferation (MTT) assay, BNL SV A.8; assay type: cell-based; conditions: Mus musculus; 48 h, MTT; read-out: IC50 cell growth inhibition, BNL SV A.8
Protocol: as §2

Calu-1 cells = tested on: Calu-1 cells; set-up: method as in PMID 16493461; conditions: cited from earlier work
pBluescript plasmid DNA [12] = experiment: Topoisomerase I catalysed DNA relaxation or unwinding assay; assay type: biochemical
Protocol: For assay, 5 nM supercoiled pBluescript d-s plasmid DNA and 10 U of topoisomerase-I active enzyme were used in each reaction well. To ensure that the assay determines the DNA-intercalating property of compounds and not topoisomerase I inhibition, in a parallel experiment relaxed plasmid DNA was first prepared by treating with topo I enzyme for 30 min and then used as an initial substrate for the assay. DNA relaxation assays were performed in the presence or absence of compounds in 40 μl of DNA unwinding assay buffer. After 30 min incubation at 37 °C, reaction mixtures were treated with 3 μl of 250 mM EDTA and extracted with phenol/chloroform. The DNA was dissolved in tris-EDTA buffer, pH 8.0. The samples (20 μl) were treated with 2 μl of 2.5% SDS, mixed with 2.5 μl agarose gel loading buffer (10x) and subjected to electrophoresis on a 0.8% agarose gel without EtBr (separating the DNA in the presence of EtBr would convert the relaxed DNA into the supercoiled form). After the electrophoretic separation, DNA bands were stained with 1 μg/ml EtBr and visualized using a UV illuminator. The compounds were compared with fascaplysin, which is a known DNA-intercalating molecule. Camptothecin, which is a known topoisomerase- I inhibitor, was used to test the activity and inhibition of enzyme.

Cdk4-cyclin D1 [13] = biological target: T1, Cdk4-cyclin D1; set-up: method as in PMID 12941311, PMID 15165138; conditions: cited from earlier work
[14] = three independent experiments, read-out: IC50 (mean±S.D.), Cdk2-cyclin A

IC50 (Cdk4-cyclin D1 [1])	IC50 [2]	IC50 [3]	IC50 [4]	IC50 (Cdk2-cyclin A; [14])	IC50 [5]	IC50 [6]	IC50 (A549 (NSCLC; p53+, pRb+))	IC50 [7]	IC50 [8]	IC50 (Cdk9-cyclin T1)	EtBr displacement from DNA (pBluescript plasmid DNA [10]; pH 7.4)	IC50 (Cdk1-cyclin B1)	SMILES	IC50 [9]	IC50 [11]	also measured
25 ± 5.5 µM	92 µM	28 µM	35 µM	861 ± 29 µM	29 µM	43 µM	46 µM	42 µM	33 µM	> 1000 µM	No EtBr displacement up to 100 μM	> 500 µM	COc1ccccc1C(=O)N1CCc2c([nH]c3ccccc23)C1 [CA198]	37 µM	40 µM	–
24.4 ± 4 µM	47 µM	3.5 µM	4.5 µM	766 ± 33 µM	6.2 µM	8.5 µM	8 µM	13.1 µM	7.1 µM	> 1000 µM	No EtBr displacement up to 100 μM	> 500 µM	COc1cccc(C(=O)N2CCc3c([nH]c4ccccc34)C2)c1 [CA199]	6.5 µM	8.2 µM	phase of cell cycle block in Calu-1 cells (Calu-1 cells): blocks only at the G0/G1 phase
44 ± 3 µM	54 µM	25 µM	30 µM	720 ± 24 µM	22 µM	29 µM	31 µM	32 µM	29 µM	> 1000 µM	No EtBr displacement up to 100 μM	> 500 µM	CC(C)(C)c1ccc(C(=O)N2CCc3c([nH]c4ccccc34)C2)cc1 [CA211]	27 µM	35 µM	–

SMILES	IC50 (Cdk4-cyclin D1 [1])	IC50 [2]	IC50 [3]	IC50 [4]	IC50 (Cdk2-cyclin A; [14])	IC50 [5]	IC50 [6]	IC50 (A549 (NSCLC; p53+, pRb+))	IC50 [7]	IC50 [8]	IC50 (Cdk9-cyclin T1)	EtBr displacement from DNA (pBluescript plasmid DNA [10]; pH 7.4)	IC50 (Cdk1-cyclin B1)	IC50 [9]	IC50 [11]	also measured
O=C1c2ccccc2-[n+]2ccc3c([nH]c4ccccc43)c21 [Fascaplysin, fascaplysin, reference compound]	–	1.3 µM	–	–	–	–	0.88 µM	0.69 µM	0.92 µM	0.88 µM	> 250 µM	Displaces EtBr at 1 μM	> 250 µM	–	–	IC50 (Cdk2-cyclin A): > 250 µM; state of relaxed (negatively supercoiled) plasmid DNA after treatment (pBluescript plasmid DNA [12]; relaxed pBluescript DNA as substrate, BPT up to 100 μM, fascaplysin 1 μM): does not remain intact; hindrance of topoisomerase-I catalysed DNA relaxation (pBluescript plasmid DNA [12]; supercoiled pBluescript DNA, fascaplysin 10 and 1 µM, BPT 10 and 100 µM): hinder topoisomerase-I catalysed DNA relaxation; IC50 (Cdk4-cyclin D1 [13]): ~0.35 µM; EtBr displacement from DNA (pBluescript plasmid DNA [10]; pH 7.4, listed as fascaplysin): readily dislodges the bound EtBr
